Read-outs that look alike come from different tables or passages of the source.
Legend:
[1] = after 7 days, binding curve before reported; cited from earlier work
[2] = test system: human breast cancer MDA-MB-231 cell line; format: cell-based; details: 0-200 μM
Procedure: (§1) Cell Culture Methods. Media with DMEM, 5% FBS, and 1% Pen-Strep were used to incubate MDA-MB-231 cells at 37° C. with 5% CO2. The osteoblast hFOB 1.19 cell line was incubated at 34° C., 5% CO2, in 1:1 DMEM:F-12 supplemented with 0.3 mg/mL G418, and 10% FBS. Cell passages were performed weekly at 80.0% confluency. Media exchanges were carried out twice every 7 d.
(§2) Cell treatment. […] Cells (MDA-MB-231, hFOB 1.19) were seeded in 96 well plates at a density of 2.5×10^5 cells/mL. The 96 well plates were incubated at 37° C. with 5% CO2 for 24 h. Three 96 well plates were prepared per time point (24, 48, and 72 h). […] Cells were incubated at 37° C. and 5% CO2 for 24, 48, and 72 h. Control groups were treated with media (MDA-MB-231 with DMEM, 1% Pen-Strep) and (hFOB 1.19 with 1:1 DMEM:F-12, 0.3 mg/mL G418). Cell proliferation was determined after each point time of treatment. A 10% AlamarBlue® solution was previously prepared using PBS. The media was removed from all 96 well plates and 100 μL of AlamarBlue® solution was added. The 96 well plates were incubated for 4 h (MDA-MB-231 at 37° C., 5% CO2) and (hFOB 1.19 at 34° C., 5% CO2). The fluorescence was measured at 560 nm of excitation and lambda max 590 nm of emission. […] The experiments for the % RCL were performed employing the same conditions previously mentioned for the IC50 determination. All experiments were accomplished in triplicate. The GraphPad Prism 8 vs 8.3.1 was utilized to generate the IC50 curves and to plot the % RCL graphs.
(§3) Furthermore, the cytotoxicity of these materials was also achieved using the osteoblast-like hFOB 1.19 cell line, within work, these immortalized human cells were used to simulate the human bone microenvironment (not cancerous cells). […] Control groups were treated with media (DMEM, 1% Pen-Strep, MDA-MB-231) and (1:1 DMEM:F12, 0.3 mg/mL G418, hFOB 1.19), respectively. AlamarBlue® assay was employed to determine cell proliferation after each time point.
as §1, with “Methods—Media” for “Methods. Media”, “CO2” for “CO2,”
(§4) Cell seeding—Both cells were seeded in 96 well plates at a density of 2.5×10^5 cells/mL. The 96 well plates were incubated at 37° C. (MDA-MB-231) and 34° C. […] Experiments were performed in triplicate.
(§5) (MDA-MB-231) and 34° C. […] All experiments were accomplished in triplicate.

[3] = test system: normal osteoblast-like hFOB 1.19 cell line; format: cell-based; details: 0-200 μM
Procedure: as §1, §2, §3
as §1, with “Methods—Media” for “Methods. Media”, “CO2” for “CO2,”
as §4, §5

[4] = Binding assay to hydroxyapatite (HA); details: 0.5 mg/mL, 20 mg HA, PBS
Procedure: Hydroxyapatite (HA) treatment. […] The experiment was carried out for 0-12 days, in stirring at 120 rpm. […] The supernatant was centrifuged for 8 min (500 rcf) and the absorbance was measured at 231 nm. Solid samples were characterized by SEM-EDS, TGA, and PXRD.
The experiment was carried out for 0-12 days, in constant stirring at 120 rpm. […] The supernatant was centrifuged for 8 min (500 rcf) and the absorbance was measured at 231 nm. Solid samples were characterized by SEM-EDS and PXRD.

NCCCC(O)(P(=O)(O)O)P(=O)(O)O [ALEN, Alendronic acid]
% Binding to HA [1]: > 95%

benzene 1,4-bis(bisphosphonic acid) [BBPA]
IC50 ([2]; MDA-MB-231, 24 h of treatment): > 200 µM | IC50 ([2]; MDA-MB-231, 48 h of treatment): > 200 µM | IC50 ([2]; MDA-MB-231, 72 h of treatment): > 200 µM | IC50 ([3]; hFOB 1.19, 24 h of treatment): > 200 µM | IC50 ([3]; hFOB 1.19, 48 h of treatment): > 200 µM | IC50 ([3]; hFOB 1.19, 72 h of treatment): > 200 µM | % Binding to HA ([4]; 0 d): 0% | % Binding to HA ([4]; 1 d): 1% | % Binding to HA ([4]; 2 d): 39% | % Binding to HA ([4]; 3 d): 54% | % Binding to HA ([4]; 4 d): 74%

Source: patent publication US11713331B2, “Benzene 1,4-bis(bisphosphonic acid)-based metal complexes, method of synthesis and applications thereof” (priority 2020, dated 2023)
